Consider 1 compound from publication PMC5126668 (PeerJ, 2016).

For data set [1], the system named is rat kidney. Briefly: Kim-1 in rat urine after a single oral dose (ELISA). It is filed as in vivo, Sprague–Dawley rats. The note with it: for KIM-1: single oral dose.
Experimental: (§1) The blood samples were taken 24 h after the administration of a single oral dose in each group. The samples were promptly centrifuged, and the biochemical parameters, including the levels of ALT, AST, BUN, Cr, and NAG, were then measured. The level of Kim-1 was measured in collected urine samples according to the kit instructions.
Data set [2] has as its system rat liver. Briefly: Hepatic functional markers (ALT, AST) in rats after a single oral dose. It is filed as in vivo, Sprague–Dawley rats. The note with it: 24 h after single oral dose, mg/kg: AA I 70, BAK 200, ABT 100, GA 100, combinations 200+100.
Experimental: as §1
For data set [3], the system named is rat kidney. Kind of data set: Renal functional markers (BUN, Cr, NAG) in rats after a single oral dose. The note with it: for BUN / Cr / NAG: rats, single oral dose. The protocol: ABT, a broad-spectrum nonspecific CYP inhibitor, was selected as a positive control inhibitor of CYP enzymes. Aristolochic acid A (AA I) was selected as the nephrotoxicity positive control in the study.
The samples were promptly centrifuged, and the biochemical parameters, including the levels of ALT, AST, BUN, Cr, and NAG, were then measured. The level of Kim-1 was measured in collected urine samples according to the kit instructions.

The mark [4] stands for this setting: individual animals (Fig. 3 data).
Setting [5] is: rat, 24 h after single oral dose, vs vehicle control.

Where “and” joins values, the source holds several entries; their conditions need not be identical. Equal entries are not always repeated.

For `COc1cccc2c1cc([N+](=O)[O-])c1c(C(=O)O)cc3c(c12)OCO3` [AA I, Aristolochic acid A], the “Kim-1 level (in words)” value in data set [1] (after single oral dose, vs vehicle control) is recorded as “significantly increased”. This compound also registered a KIM-1 in data set [1] (group Mean (Fig. 3 data)) of 1538.00 pg/mL. For the same compound, the KIM-1 in data set [1] (setting [4]) was 804.00 pg/mL and 2994.00 pg/mL and 624.00 pg/mL and 2464.00 pg/mL. In data set [2], the “ALT (IU/L)” value was 41.91±3.40 IU/L and the “AST (IU/L)” value amounted to 29.08±8.01 IU/L. Further, in data set [3] (setting [5]), the “BUN level (in words)” value was “significantly increased”, the “Cr level (in words)” value was “significantly increased” and the “NAG level (in words)” value is “significantly increased”. Also, in data set [3] (group Mean (Fig. 3 data)), the BUN was 6.405 mmol/L, the Cr worked out at 367.877 µmol/L and the NAG is on record as 42.409 IU/L. Besides, in data set [3] (setting [4]), the BUN is 5.797 mmol/L and 6.023 mmol/L and 6.135 mmol/L and 7.373 mmol/L and 6.698 mmol/L; the Cr is 298.782 µmol/L and 308.970 µmol/L and 369.706 µmol/L and 567.416 µmol/L and 294.508 µmol/L; the NAG was 23.912 IU/L and 43.077 IU/L and 48.176 IU/L and 27.429 IU/L and 69.451 IU/L.
